Measured values from patent US12472175B2, “Methods of treating venetoclax-resistant acute myeloid leukemia” (OREGON HEALTH & SCIENCE UNIVERSITY, priority 2019, dated 2025).
pIC50: −log10 of the molar value. Values belong to the molecule of their own block, whether it stands above or below them.

Experiments:
MOLM-13 cells [1] = settings: cells with inactivation of TP53 and BAX, regardless of venetoclax treatment
MOLM-13 cells [2] = assay: Mitochondrial membrane potential (JC-1); type: cell-based, Human; settings: TP53 and BAX mutant cells, CCCP alone
Description: Membrane depolarization was induced with CCCP. Cells were treated with 100 nM venetoclax or DMSO and with or without CCCP for 2 hrs prior to addition of the dye and flow cytometry.
FIG. 5. […] Histogram of a representative mitophagy experiment (n=2). […] FIG. 5B. […] FIGS. 5C, 5D. […] FIG. 5E. […] FIG. 5F. Cell viability assay in response to elesclomol.

MOLM-13 cells [3] = assay: Cell viability (MTS) drug sensitivity assay in MOLM-13 cells transduced with sgRNA/Cas9 viruses; type: cell-based, Human
Description: (§1) Small-molecule inhibitors, purchased from LC Laboratories (Woburn, Mass., USA) and Selleck Chemicals (Houston, Tex., USA), were reconstituted in DMSO and stored at −80° C. Inc. Inhibitors were distributed into 384-well plates prepared with a single agent/well in a 7-point concentration series ranging from 10 μM to 0.04 μM for each drug. The final concentration of DMSO was ≤1.1% in all wells. Cells were seeded into 384-well assay plates at 1,000 cells/well in RPMI-1640 media supplemented with fetal bovine serum (15%), L-glutamine, penicillin-streptomycin and antimycotic. After three days of culture at 37° C. in 5% CO2, MTS reagent (CellTiter96 AQueous One; Promega Madison, Wis., USA) was added, optical density was measured at 490 nm, raw absorbance values were adjusted to a reference blank value, and then used to determine cell viability (normalized to untreated control wells). Prizm software(GraphPad) was used to perform non-linear regression analyses on normalized values for the determination of IC50.
FIG. 2. A. Confirmation of genes conferring venetoclax resistance in MOLM-13 and MV4;11 cells and correlations with changes in apoptotic gene transcription in AML patients. MOLM-13 (FIG. 2A) or MV4;11 (FIG. 2B) cells were transduced with lentiviruses carrying single sgRNA/Cas9 constructs targeting TP53, BAX, PMAIP1, FAU or control (non-targeting; NT_g). 10 days post transduction, venetoclax sensitivity was measured in triplicate by colorimetric MTS assay using a 7-point concentration range (4 nM to 10 μM). Percentages of viable cells, after normalization to untreated controls, were fit using non-linear regression analyses; mean and standard errors are shown. MOLM-13P, parental MOLM-13 cells. MV4;11P, parental MV4;11 cells. FIG. 2C. Histogram (log 2 scale) summarizing changes in venetoclax sensitivity in parental MOLM-13 (black shaded), parental MV4;11 cells (grey shaded) or cells transduced with indicated sgRNA/Cas9 viruses., IC50 values were calculated by non-linear regression analyses in the cell viability assay described in panel A. FIG. 2D. […]

[4] = test system: MOLM-13 and MV4;11 cells with TP53 and BAX KOs; assay: Small molecule inhibitor panel screen, changes common to modified MOLM-13 and MV4;11 cells; type: cell-based, Human; settings: for sensitivity to FLT3 inhibitors: TP53 inactivated MV4;11 and MOLM-13 cells; for sensitivity to NTRK/ALK/ROS1 inhibitors: cells with TP53 KO; for change in drug sensitivity common to modified MOLM-13 and MV4;11 cells: TP53 and BAX KOs relative to non-targeting control
Description: as §1, with “The final concentration of DMSO was ≤1.1% in all wells. Cells were seeded into 384-well assay plates at 1,000 cells/well in RPMI-1640 media supplemented with fetal bovine serum (15%), L-glutamine, penicillin-streptomycin and antimycotic.” left out
FIG. 7A. MOLM-13 and MV4;11 cells, transduced with indicated sgRNAs/Cas9 viruses, were screened with a panel of inhibitors targeting various molecular pathways and assessed using the cell survival method described in FIG. 2A.
FIG. 7B. Analyses of FLT3 inhibitor sensitivities, in MOLM-13 and MV4;11 parental and Crispr-modified cells, as indicated. Drug sensitivity was measured as described in FIG. 2A, with IC50 measured in triplicate.

[5] = test system: primary AML patient cells; assay: Ex vivo viability (MTS) drug sensitivity in primary AML patient samples (Beat AML); type: cell-based
Description: as §1
FIG. 3. Venetoclax sensitivity in AML patients inversely correlates with TP53 mutations and low expression of TP53 and BAX. 3A. Venetoclax (VEN) sensitivity in primary AML patient samples was measured in a viability assay across a concentration series ranging from 10 nM to 10 μM. AUC was determined for each sample and plotted relative to TP53 mutant status or TP53 expression levels. LE and HE denote lowest and highest quartile expression values, respectively. […] Within TP53 mutant groups, circles, triangles and square symbols denote loss of function (LOF), gain of function (GOF), and splice variants correspondingly. 3B. Correlation between gene expression levels from AML patient samples for TP53, BAX, PMAIP1 and TMEM14A to the respective venetoclax sensitivities represented by AUC (n=442; [36]). k, slope values generated by linear regression; r, Spearman coefficient; ****, p<0.0001; ns, not significant.
FIG. 12. Selected ex vivo drug sensitivity in AML patients' cells with mutant TP53 mutations. Histogram representing drug sensitivity, measured in primary AML patient cells ex vivo, in a viability MTS assay across a concentration series ranging from 10 nM to 10 μM, using 10,000 cells per well, in triplicates. […] Red bars denote median IC50 value.
(§2) FIG. 13. Analyses of Venetoclax sensitivities in CLL and AML patient cohorts ex vivo. Scatter plot of IC50 values are indicated. Mann-Whitney test was performed on IC50 values to ascertain statistical differences of mean. ***, p<0.001.

NTRK = assay: Western blot of NTRK and downstream MAPK phosphorylation; type: cell-based, Human; settings: TP53 KO MOLM-13, entrectinib 100 nM overnight; not in control or parental cells
Description: Whole cells extracts from MOLM-13 or MV4;11 cells were prepared using 20 mM Tris-HCl (pH 7.5), 150 mM NaCl, 1 mM Na EDTA, 1 mM EGTA, 1% Triton, 2.5 mM sodium pyrophosphate, 1 mM beta-glycerophosphate, 1 mM Na3VO4, 1 μg/ml leupeptin (Cell Signalling), 1 mM PMSF, […] (Roche) and phosphatase inhibitor cocktail (Sigma-Aldrich). Proteins were resolved on 5-15% gradient gels (Biorad), transferred to PVDF membrane (Amersham) and subjected to immunoblotting using primary, followed by corresponding HRP-conjugated secondary antibodies (Promega), or biotinylated secondary antibody followed by streptavidin conjugated to HRP(TRK antibodies).
FIG. 7E. Western blot analyses of proteins extracted from MOLM-13 parental and MOLM-13 transduced with TP53 sgRNA/Cas9 viruses and treated overnight with venetoclax (100 nM), entrectinib (100 nM) or DMSO (vehicle), and identified with antisera to pan NTRK, phosphorylated NTRK, phosphorylated ERK1/2, ERK1/2, phosphorylated AKT, AKT and GAPDH.

MOLM-13 cells [6] = assay: Cell cycle profile by flow cytometry; type: cell-based, Human; settings: TP53 KO cells, 100 nM entrectinib o/n
Description: FIG. 11. Entrectinib arrests cells with loss-of-function alleles for TP53 in G1. (FIG. 11A). Flow cytometry analyses of cells treated with 100 nM entrectinib o/n or vehicle alone. (FIG. 11B). Histogram representing cell cycle profiles of MOLM-13 cells transduced with sgRNAs/Cas9 viruses for non-targeting sgRNA (NT_g, n=3), TP53 sgRNA (TP53_g, n=3) or BAX (n=1); mean and standard deviation are shown where appropriate. (FIG. 11C). Cell viability assay assessing the sensitivity of the combination of entrectinib and venetoclax relative to sensitivities for each single agent on MOLM-13 cells transduced with sgRNAs/Cas9 viruses for TP53 sgRNA. Data were fit to a non-linear regression analysis with means and standard errors.

CLL patient specimens = assay: Ex vivo venetoclax sensitivity in CLL patient cohort; type: cell-based
Description: as §1, §2

[7] = sensitivity printed as IC50≥0.5 μM

Molecule: carboyl cyanide m-chlorophenyl hydrazine [CCCP]
mitophagy in response to mitochondrial uncoupler (MOLM-13 cells [1]): less likely to undergo mitophagy or mitochondrial death | loss of mitochondrial membrane potential in response to uncoupler (MOLM-13 cells [2]): less likely to lose mitochondrial membrane potential

Molecule: O=C(Nc1cnn2ccc(N3CCC[C@@H]3c3cc(F)ccc3F)nc12)N1CC[C@H](O)C1 [larotrectinib]
sensitivity to selective NTRK inhibitor (MOLM-13 cells [3]; TP53 KO): profound gain of sensitivity

Molecule: CC1(COc2ccc3c(c2)ncn3-c2ccc3cccc(N4CCC(N)CC4)c3n2)COC1 [crenolanib]
sensitivity to FLT3 inhibitors [4]: loss of sensitivity

Molecule: COc1ccc(COc2ccc(Cc3cnc(N)nc3N)cc2OC)cc1 [GW-2580]
sensitivity to NTRK/ALK/ROS1 inhibitors [4]: sustained gain of sensitivity

Molecule: CS(=O)(=O)N1CCN(Cc2cc3nc(-c4cccc5[nH]ncc45)nc(N4CCOCC4)c3s2)CC1 [GDC-0941]
change in drug sensitivity common to modified MOLM-13 and MV4;11 cells [4]: increased

Molecule: CN1CCN(c2ccc(C(=O)Nc3n[nH]c4ccc(Cc5cc(F)cc(F)c5)cc34)c(NC3CCOCC3)c2)CC1 [entrectinib]
ex vivo drug sensitivity in AML patient cells with TP53 mutations ([5]; several patient specimens, 10 nM to 10 μM): relatively high sensitivity | sensitivity to NTRK/ALK/ROS1 inhibitors [4]: sustained gain of sensitivity | phosphorylation of NTRK and downstream MAPK signaling (NTRK): significant decreases in phosphorylation | cell cycle effect (MOLM-13 cells [6]): G1 cell cycle blockade

Molecule: Cc1c2c(nn1C)CSCc1cc(n(C)n1)CSc1cc(c3ccccc3c1)OCCCc1c(C(=O)O)n(C)c3c-2c(Cl)ccc13 [AZD5991]
sensitivity to MCL1 inhibitor, TP53 KO (MOLM-13 cells [3]; TP53 KO MOLM13 cells): significantly diminished

Molecule: O=S(=O)(NCCNC/C=C/c1ccc(Br)cc1)c1cccc2cnccc12 [H-89]
change in sensitivity between BAX-inactivated MV4;11 and MOLM-13 cells ([4]; BAX-inactivated, also overlapped in TP53 inactivated cells): concordant changes

Molecule: Cc1cc(Nc2nc(N[C@@H](C)c3ncc(F)cn3)ncc2Cl)n[nH]1 [AZD1480]
sensitivity to NTRK/ALK/ROS1 inhibitors [4]: sustained gain of sensitivity

Molecule: C[C@@H](Oc1cc(-c2cnn(C3CCNCC3)c2)cnc1N)c1c(Cl)ccc(F)c1Cl [crizotinib]
sensitivity to NTRK/ALK/ROS1 inhibitors [4]: sustained gain of sensitivity

Molecule: COCCn1c2c([n+](Cc3cnccn3)c1C)C(=O)c1ccccc1C2=O [YM-155]
change in drug sensitivity common to modified MOLM-13 and MV4;11 cells [4]: increased

Molecule: Oc1cccc(-c2nc(N3CCOCC3)c3oc4ncccc4c3n2)c1 [PI-103]
change in drug sensitivity common to modified MOLM-13 and MV4;11 cells [4]: increased

Molecule: CNC(=O)c1cc(Oc2ccc(NC(=O)Nc3ccc(Cl)c(C(F)(F)F)c3)cc2)ccn1 [sorafenib]
sensitivity to FLT3 inhibitors [4]: loss of sensitivity

Molecule: CN(NC(=O)CC(=O)NN(C)C(=S)c1ccccc1)C(=S)c1ccccc1 [elesclomol]
cell viability in response to elesclomol (MOLM-13 cells [3]; TP53 and BAX KO cells): still susceptible to cell death

pIC50 (CLL patient specimens; Homo sapiens, CLL, 141 patients, read-out: Median IC50, venetoclax sensitivity ex vivo, CLL cohort): 5.85
Molecule: CC1(C)CCC(CN2CCN(c3ccc(C(=O)NS(=O)(=O)c4ccc(NCC5CCOCC5)c([N+](=O)[O-])c4)c(Oc4cnc5[nH]ccc5c4)c3)CC2)=C(c2ccc(Cl)cc2)C1 [venetoclax]
pIC50 ([5]; Homo sapiens, AML, 289 patients, read-out: Median IC50, venetoclax sensitivity ex vivo, AML cohort): 7.00 | median IC50 for AML relative to that for CLL ([5]; ex vivo patient samples, Beat AML cohort): 14 times | share of AML specimens exhibiting sensitivity to venetoclax [5, 7]: about 40% | share of CLL specimens exhibiting sensitivity to venetoclax (CLL patient specimens; [7]): ~55%
